The target of this assay is T1, FXR (Rattus norvegicus, UniProt Q62735).
T1 sequence (Q62735 1-469): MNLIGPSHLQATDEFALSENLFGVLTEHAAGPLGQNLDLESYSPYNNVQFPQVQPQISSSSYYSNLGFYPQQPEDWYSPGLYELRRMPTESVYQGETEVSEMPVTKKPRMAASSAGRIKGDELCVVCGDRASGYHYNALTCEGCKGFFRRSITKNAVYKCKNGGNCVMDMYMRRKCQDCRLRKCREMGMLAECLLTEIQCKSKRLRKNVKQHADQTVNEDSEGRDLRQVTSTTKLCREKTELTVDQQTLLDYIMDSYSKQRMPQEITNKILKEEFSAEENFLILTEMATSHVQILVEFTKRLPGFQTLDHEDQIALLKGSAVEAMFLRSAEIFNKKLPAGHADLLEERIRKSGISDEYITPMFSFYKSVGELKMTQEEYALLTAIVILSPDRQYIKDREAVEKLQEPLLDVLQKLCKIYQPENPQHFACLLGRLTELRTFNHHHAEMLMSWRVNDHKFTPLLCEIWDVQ
T1 sequence (P28700 1-467 partner): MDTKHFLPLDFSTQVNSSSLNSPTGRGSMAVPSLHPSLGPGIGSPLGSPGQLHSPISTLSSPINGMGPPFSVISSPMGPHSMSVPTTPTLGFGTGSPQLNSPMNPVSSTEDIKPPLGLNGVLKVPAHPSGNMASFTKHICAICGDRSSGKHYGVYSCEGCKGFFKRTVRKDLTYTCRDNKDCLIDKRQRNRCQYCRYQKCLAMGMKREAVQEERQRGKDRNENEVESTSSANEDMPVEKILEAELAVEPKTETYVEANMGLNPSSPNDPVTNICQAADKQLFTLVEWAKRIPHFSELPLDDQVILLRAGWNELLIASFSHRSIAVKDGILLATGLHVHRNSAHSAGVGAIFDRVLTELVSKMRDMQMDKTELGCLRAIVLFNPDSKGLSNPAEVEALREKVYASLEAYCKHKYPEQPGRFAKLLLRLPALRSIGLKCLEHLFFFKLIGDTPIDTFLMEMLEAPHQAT
Put plainly: cell-based. As to conditions: for FXR-dependent transcription, induction: 7.5 μM. As to the method: These experiments employed a mammalian cell culture system using Chinese hamster ovary cells (CHO) to evaluate the transcriptional function of Drosophila melanogaster EcR and USP using methods described previously (U.S. Patent Application Publication No: 2005/0049230; Henrich et al, 2003). Cells were seeded in 6-well polypropylene culture plates (Falcon) with 10^5 cells per well on the day prior to transfection. Transfection was subsequently performed using either calcium phosphate (Kitareewan et al., 1996, Mol. Biol. Cell, 7:1153-1196) or a GenePorter reagent (Gene Therapy Systems, Inc; San Diego, Calif.) following manufacturer's protocols. Each well received 1.25 μg of (EcRE)5-ΔMTV-CAT (five copies of the hsp27 EcRE inserted into an mouse mammary tumor virus (MTV) promoter upstream of the chloramphenicol acetyltransferase (CAT) gene) or (EcRE)5-ΔMTV-LUC (the same promoter attached to firefly luciferase), 1.25 μg of pCH111 (SV40 early promoter linked to the β-galactosidase gene) to normalize CAT activity, and 0.25 μg of each expression plasmid (EcR, FXR, RXR, USP) that was tested. The cells were incubated with plasmid DNA for seven hours and then washed with 1×PBS. Muristerone A (murA; Alexis Biochemicals) or 20-hydroxyecdysone (20E; Sigma) dissolved in ethanol to a concentration of 10 mM was diluted as necessary to the final assay concentration (FAC) in 2 ml of fresh incubation medium that was then applied to the cells. Similarly, JHIII (Sigma) was dissolved in dimethyl sulfoxide (DMSO) to a concentration of […] and diluted into the incubation medium to its final assay concentration (20, 40, 80, 160 μM). […] A corresponding volume of ethanol and DMSO were added to control cells for all experiments. For all experiments, the cells were allowed to incubate with the medium for 24 hours before collection and cell lysates were prepared by described methods (Kitareewan et al., 1996). Both β-galactosidase and CAT reporter activity were measured based on previously used methods (Kitareewan et al, 1996). Luciferase assays using luciferrin followed the specifications of the manufacturer.
Transcriptional activity, measured as ^14C-chloramphenicol counts (for measuring CAT activity) or relative luciferase activity (RLU) was quantified for each cell lysate. The counts were then normalized by adjusting for differences in β-galactosidase activity, since β-galactosidase expression is controlled by a constitutive promoter and provides an estimate of cell mass. Data were normalized as fold-induction based on differences in reporter gene activity between hormonally treated and control cells.
In these experiments, candidate juvenoids were tested for their ability to activate FXR mediated transcription by transfecting Chinese hamster ovary (CHO) cells using the FXR plasmid, mouse RXRα, and the ΔMTV-(EcRE)5-CAT reporter as described herein. An RXR-dependent CRBPII-CAT reporter plasmid was employed in parallel assays to discern activators specific for this receptor.

The mark [1] stands for this setting: dose 20 μM, 1 = no increase over vehicle.

Turning to 5,11-dimethyltetrahydrochrysene, the “FXR-dependent activity, induction” value (dose not stated) is listed as “activated”.
For the compound `CCCCCc1cc(O)c2c(c1)OC(C)(C)[C@@H]1CC=C(C)C[C@@H]21` (single isomer, unassigned) [Δ^8-isomer], the “FXR-dependent CAT activity, induction” value (15 μM) is “not”.
Consider `CC12CCC(CC1)C(C)(C)O2` [1,8-cineole], for which the “FXR-dependent activity, induction” value (800 μM) was “two-fold”. For the same compound, the “FXR ACTIVITY (fold-induction)” value (dose 400 μM) amounted to 2 fold-induction.
For `OCCc1ccccc1O` [2-hydroxyphenethyl alcohol, 2-hydroxyphenethlyl alcohol], the “FXR-dependent activity, induction” value (400 μM) worked out at 3 fold.
Take `C=C(C)CCc1cc(OC)c(OC)cc1O` [3,4-dimethoxy-6-isopentenylphenol]: under “100 μM”, the “FXR-dependent activity, induction” value is reported as 3 fold.
On to `OCCc1cccc(O)c1` [3-hydroxyphenethyl alcohol, 3-hydroxyphenethlyl alcohol], for which the “FXR-dependent activity, induction” value (400 μM) worked out at 3 fold.
Still for that read-out and setting: the result for `OCCc1ccc(O)cc1` [4-hydroxyphenethyl alcohol, 4-hydroxyphenethlyl alcohol] reads 3 fold.
Take `COc1cc2ccc(=O)oc2cc1O` [7-hydroxy-6-methoxycoumarin]: the “FXR-dependent activity, induction” value (1 mM) is listed as “ineffectiveness”.
As for `CC(C)CCC[C@@H](C)[C@H]1CC[C@H]2[C@@H]3C(=O)C=C4C[C@@H](O)CC[C@]4(C)[C@H]3CC[C@]12C` [7-ketocholesterol], the “FXR-dependent transcription, induction” value is reported as “not”.
On to `COc1ccc2ccc(=O)oc2c1` [7-methoxycoumarin], for which the “FXR-dependent activity, induction” value (1 mM) was determined as 10 fold.
As to `CC(C)CCC[C@@H](C)[C@H]1CC[C@H]2[C@@H]3[C@H](O)C=C4C[C@@H](O)CC[C@]4(C)[C@H]3CC[C@]12C` [7α-hydroxycholesterol], the “FXR-dependent transcription, induction” value is on record as “not”.
Take `Nc1ncnc2c1nc(Br)n2[C@@H]1O[C@@H]2COP(=O)(O)O[C@H]2[C@H]1O` [8-Br-cAMP]: the “FXR-dependent activity, induction” value (1 mM) is recorded as 4 fold.
Consider `COc1c2occc2cc2ccc(=O)oc12` [8-methoxypsoralen], for which the “FXR-dependent CAT activity, induction” value (50 μM) was “inactive”.
As to `CC(C)=CCc1c(O)cc(O)c2c1O[C@H](c1ccc(O)cc1)CC2=O` [8-prenylnaringenin], the “FXR-dependent CAT activity, induction” value (20 μM) is 38 fold. Besides, the “FXR ACTIVITY (fold-induction)” value under setting [1] was 38 fold-induction.
Turning to `CC(C)CCC[C@](C)(O)[C@H]1CC[C@H]2[C@@H]3CC=C4C[C@@H](O)CC[C@]4(C)[C@H]3CC[C@@]21C` [20α-hydroxycholesterol], the “FXR-dependent transcription, induction” value came to 10 fold.
On the same count and under the same terms, the result for `CC(C)CC[C@H](O)[C@@H](C)[C@H]1CC[C@H]2[C@@H]3CC=C4C[C@@H](O)CC[C@]4(C)[C@H]3CC[C@]12C` [22S-hydroxycholesterol] reads “not”.
Take `COc1cc(O)c(CC=C(C)C)c2c1C(=O)CC(c1ccc(O)cc1)O2` (stereo not shown) [Isoxanthohumol]: where the note is “20 μM”, the “FXR-dependent CAT activity, induction” value is 9 fold. Also, under setting [1], the “FXR ACTIVITY (fold-induction)” value is listed as 9 fold-induction.
The matching figures for `CC(C)=CCC1=C(O)C(C(=O)CC(C)C)=C(O)C(CC=C(C)C)(CC=C(C)C)C1=O` [Lupulone]: “inert” and 1 fold-induction.
Turning to `CC1=C[C@H]2[C@@]3(O)[C@H](C)[C@@H](O)[C@]4(O)[C@H]([C@@H]3C=C(CO)C[C@]2(O)C1=O)C4(C)C` [Phorbol], the “FXR-dependent activity, induction” value (dose not stated) was “inactive”.
Turning to `CCCCCc1cc(O)c2c(c1)OC(C)(C)[C@@H]1CCC(C)=C[C@@H]21` [THC, 1-trans-Δ^9-tetrahydrocannabinol], under “15 μM”, the “FXR-dependent CAT activity, induction” value is listed as 5 fold.
With `COC1=C(OC)C(=O)C(CC=C(C)C)=C(C)C1=O` [U1, Ubiquinone-1], the “inhibition of farnesol-induced FXR-dependent activity” value (10 μM) is “completely inhibited”.
On to `COC1=C(OC)C(=O)C(C/C=C(\C)CC/C=C(\C)CCC=C(C)C)=C(C)C1=O` [U3], for which, where the note is “dose not stated”, the “FXR-dependent activity, induction” value was found to be 5 fold.
As to `COC1=C(OC)C(=O)C(C/C=C(\C)CC/C=C(\C)CC/C=C(\C)CCC=C(C)C)=C(C)C1=O` [U4], the “FXR-dependent activity, induction” value (dose not stated) stood at 3 fold.
Same read-out and setting: the result for `COC1=C(OC)C(=O)C(C/C=C(\C)CC/C=C(\C)CC/C=C(\C)CC/C=C(\C)CC/C=C(\C)CCC=C(C)C)=C(C)C1=O` [U6] reads “inactive”.
On the same count and under the same terms, the result for `COC1=C(OC)C(=O)C(C/C=C(\C)CC/C=C(\C)CC/C=C(\C)CC/C=C(\C)CC/C=C(\C)CC/C=C(\C)CC/C=C(\C)CCC=C(C)C)=C(C)C1=O` [U8] reads “inactive”; that for `COC1=C(OC)C(=O)C(C/C=C(\C)CC/C=C(\C)CC/C=C(\C)CC/C=C(\C)CC/C=C(\C)CC/C=C(\C)CC/C=C(\C)CC/C=C(\C)CCC=C(C)C)=C(C)C1=O` [U9], “inactive”; that for `COC1=C(OC)C(=O)C(C/C=C(\C)CC/C=C(\C)CC/C=C(\C)CC/C=C(\C)CC/C=C(\C)CC/C=C(\C)CC/C=C(\C)CC/C=C(\C)CC/C=C(\C)CCC=C(C)C)=C(C)C1=O` [U10], “inactive”.
As for `COc1cc(O)c(CC=C(C)C)c(O)c1C(=O)/C=C/c1ccc(O)cc1` [Xanthohumol], the “FXR ACTIVITY (fold-induction)” value (dose not given, 1 = no increase over vehicle) was 1 fold-induction. Besides, the “FXR-dependent activity, induction” value (dose not stated) is “not activated”.
For the compound `CCOC(=O)C=C(C)CCCC(C)(Cl)CCCC(C)(C)Cl` (stereo not shown) [ZR232, ethyl ester of 7,11-dichloro-2-ene farnesoic acid], under “50 μM”, the “FXR-dependent CAT activity, induction” value is on record as 5 fold.
For the compound `Nc1ncnc2nc[nH]c12` [adenine], where the note is “dose not stated”, the “FXR-dependent activity, induction” value is recorded as “ineffective”.
With `C=CCc1cc(OC)c2c(c1OC)OCO2` [apiole], for the setting “250 μM”, the “FXR-dependent CAT activity, induction” value is recorded as 4 fold.
On to `CC(C)=CCC/C(C)=C/COc1c2ccoc2cc2oc(=O)ccc12` [bergamotin], for which the “FXR-dependent activity, induction” value (25 μM) is reported as 8 fold. Further, the “FXR ACTIVITY (fold-induction)” value (dose 25 μM) turned out to be 10 fold-induction.
On to `C=CCC1=C(C)C(OC(=O)[C@@H]2[C@@H](C=C(C)C)C2(C)C)CC1=O` (stereo partly shown) [bioallethrin], for which, where the note is “25 μM”, the “FXR-dependent activity, induction” value amounted to 14 fold.
For `C[C@@]12CCc3occc3[C@H]1CC[C@@]13C[C@@H](CC[C@H]12)[C@@](O)(CO)C3` [cafestol], the “FXR ACTIVITY (fold-induction)” value under setting [1] came to 12 fold-induction.
On to `O=C(O)/C=C/c1ccc(O)c(O)c1` [caffeic acid], for which the “FXR-dependent CAT activity, induction” value (250 μM) is “inactive”. The “FXR ACTIVITY (fold-induction)” value (dose 100 μM, 1 = no increase over vehicle) came out at 1 fold-induction.
As to `CCCCCc1cc(O)c2c(c1)OC(C)(C)c1ccc(C)cc1-2` [cannabinol], the “FXR-dependent CAT activity, induction” value (15 μM) is given as “not”.
In the case of `CNC(=O)Oc1cccc2ccccc12` [carbaryl], for the setting “dose not stated”, the “FXR-dependent activity, induction” value is “inactive”.
Regarding `ClC1=C(Cl)C2(Cl)C3C(Cl)C(Cl)CC3C1(Cl)C2(Cl)Cl` (stereo not shown) [chlordane], the “FXR-dependent CAT activity, induction” value (5 μM) is listed as 7 fold. The “FXR ACTIVITY (fold-induction)” value (dose 5 μM) is 7 fold-induction.

These data come from patent US8637237B2, “Methods, compositions, and systems for the identification of species-specific or developmental stage-specific insecticides” (The University of North Carolina at Greensboro, priority 2003, dated 2014).
